# From patent publication US20230117034A1, “PYRAZOLOTRIAZINES” (Bayer Aktiengesellschaft, priority 2019, published 2023)
# What was measured:
# [1] = system: MDA-MB-231, human breast cancer cells; assay: Proliferation assay MDA-MB-231 (crystal violet, 4 days); format: cell-based; conditions: Homo sapiens, MDA-MB-231, 96 h, MDA-MB-231 cells, median, read-out: Prolif-MDA MB-231, IC50-[mol/l] (median)
# Method in brief: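 Following a 24 h attachment in 10% fetal calf serum medium, cells receive test substance over 0.01-10 µmol/L for 4 days. Dye retained by fixed cells is eluted and read at 595 nm; cell number change is referenced to day-0 and untreated wells.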
# [2] = system: BRCA1 mRNA expression in MDA-MB-231 cells; assay: qRT-PCR assay: BRCA1 mRNA expression in MDA-MB-231; format: cell-based, human; conditions: Homo sapiens, MDA-MB-231, Inhibition of BRCA1 mRNA expression in MDA-MB-231 cells; median; read-out: RTqPCR-MDA-MB-231, IC50, BRCA1 (median)
# Method in brief: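 GAPDH-normalised RT-qPCR measures the transcript after 24 h continuous compound treatment of cells seeded at 200,000/well one day earlier.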
# CDK9/CycT1 = target: T1, CDK9/CycT1 (Homo sapiens, UniProt P50750); assay: CDK9/CycT1 high ATP kinase assay (TR-FRET, 2 mM ATP); format: biochemical; conditions: 2 mM ATP (high ATP); median; read-out: CDK9/CyclinT1, 2 mM ATP (high ATP), IC50 (median)
# T1 construct: Recombinant full-length His-tagged human CDK9 and CycT1; purchased Life Technologies PV4131; host or cells: insect cells
# T1 sequence (P50750 whole entry): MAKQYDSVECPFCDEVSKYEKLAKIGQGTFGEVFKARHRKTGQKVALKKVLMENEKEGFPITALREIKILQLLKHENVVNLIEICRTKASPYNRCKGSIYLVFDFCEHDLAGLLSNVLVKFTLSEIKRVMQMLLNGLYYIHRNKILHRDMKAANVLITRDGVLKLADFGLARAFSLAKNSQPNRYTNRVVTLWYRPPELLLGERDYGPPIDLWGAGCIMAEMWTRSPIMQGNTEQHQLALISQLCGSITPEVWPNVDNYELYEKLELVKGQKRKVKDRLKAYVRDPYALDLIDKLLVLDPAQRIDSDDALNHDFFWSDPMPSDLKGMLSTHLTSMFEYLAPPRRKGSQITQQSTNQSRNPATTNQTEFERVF
# T1 sequence (O60563 whole entry partner): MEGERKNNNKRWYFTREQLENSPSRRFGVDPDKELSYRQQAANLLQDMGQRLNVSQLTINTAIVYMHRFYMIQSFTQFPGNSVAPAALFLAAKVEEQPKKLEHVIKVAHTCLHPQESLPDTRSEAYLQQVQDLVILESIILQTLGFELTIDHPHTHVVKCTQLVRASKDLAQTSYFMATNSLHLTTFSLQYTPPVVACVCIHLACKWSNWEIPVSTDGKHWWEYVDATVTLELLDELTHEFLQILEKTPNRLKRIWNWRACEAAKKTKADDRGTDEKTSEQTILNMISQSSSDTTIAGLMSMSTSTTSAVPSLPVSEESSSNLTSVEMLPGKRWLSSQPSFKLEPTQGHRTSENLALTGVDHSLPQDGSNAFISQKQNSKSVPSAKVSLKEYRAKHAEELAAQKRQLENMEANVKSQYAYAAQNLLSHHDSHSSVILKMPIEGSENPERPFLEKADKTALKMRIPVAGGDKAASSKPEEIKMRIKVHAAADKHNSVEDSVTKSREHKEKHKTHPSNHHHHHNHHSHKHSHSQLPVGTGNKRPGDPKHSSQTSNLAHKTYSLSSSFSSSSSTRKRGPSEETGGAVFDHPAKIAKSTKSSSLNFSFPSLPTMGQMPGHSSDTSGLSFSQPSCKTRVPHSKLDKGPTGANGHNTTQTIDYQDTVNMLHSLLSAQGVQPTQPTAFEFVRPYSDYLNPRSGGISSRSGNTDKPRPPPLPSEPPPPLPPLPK
# Method in brief: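 Full-length His-tagged human CDK9/CycT1 (insect cell, ~0.5 μg/mL) preincubated 15 min at 22 °C with compound in Tris pH 8.0, MgCl2, DTT buffer before reaction with biotinylated peptide substrate at high ATP (2 mM).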
Structure (SMILES),IC50 [1] [nM],IC50 [2] [nM],IC50 (CDK9/CycT1) [nM]
"O[C@H]1CCN(c2nc(NCc3nc4ccccc4[nH]3)n3ncc(Br)c3n2)C1 [Example 224, (3S)-1-(4-{[(1H-benzimidazol-2-yl)methyl]amino}-8-bromopyrazolo[1,5-a][1,3,5]triazin-2-yl)pyrrolidin-3-ol]",128,21.2,> 20000
"CN1CC2CCC1CN2c1nc(NCc2nc3ccccc3[nH]2)n2ncc(Br)c2n1 (stereo not drawn) [Example 221, N-(1H-benzimidazol-2-ylmethyl)-8-bromo-2-(5-methyl-2,5-diazabicyclo[2.2.2]octan-2-yl)pyrazolo[1,5-a][1,3,5]triazin-4-amine]",31.7,11.8,> 20000
"Cc1ccc2[nH]c(CNc3nc(N4C[C@@H]5CCCN[C@@H]5C4)nc4c(C5CC5)cnn34)nc2c1 [Example 195, 8-cyclopropyl-N-[(5-methyl-1H-benzimidazol-2-yl)methyl]-2-[(4aS,7aS)-octahydro-6H-pyrrolo[3,4-b]pyridin-6-yl]pyrazolo[1,5-a][1,3,5]triazin-4-amine]",4.8,2.83,> 20000
"Fc1ccc2[nH]c(CNc3nc(N4CCOCC4)nc4c(C5CC5)cnn34)nc2c1F [Example 172, 8-cyclopropyl-N-[(4,5-difluoro-1H-benzimidazol-2-yl)methyl]-2-(morpholin-4-yl)pyrazolo[1,5-a][1,3,5]triazin-4-amine]",5.35,0.626,> 20000
"FC(F)(F)c1cnn2c(NCc3nc4ccccc4[nH]3)nc(N3CCOCC3)nc12 [Example 241, N-[(1H-benzimidazol-2-yl)methyl]-2-(morpholin-4-yl)-8-(trifluoromethyl) pyrazolo[1,5-a][1,3,5]triazin-4-amine]",28.9,17.3,> 20000
"CN1C[C@H]2C[C@@H]1CN2c1nc(NCc2nc3ccccc3[nH]2)n2ncc(Br)c2n1 [Example 218, N-[(1H-benzimidazol-2-yl)methyl]-8-bromo-2-[(1R,4R)-5-methyl-2,5-diazabicyclo[2.2.1]heptan-2-yl]pyrazolo[1,5-a][1,3,5]triazin-4-amine]",35.7,12.3,> 20000
"OC[C@@H]1CCCCN1c1nc(NCc2nc3cc(F)ccc3[nH]2)n2ncc(C3CC3)c2n1 [Example 191, [(2S)-1-(8-cyclopropyl-4-{[(5-fluoro-1H-benzimidazol-2-yl)methyl]amino}pyrazolo[1,5-a][1,3,5]triazin-2-yl)piperidin-2-yl]methanol]",9.68,2.18,7340
"COc1cccc2[nH]c(CNc3nc(N4C[C@@H]5CCCN[C@@H]5C4)nc4c(C5CC5)cnn34)nc12 [Example 214, 8-cyclopropyl-N-[(4-methoxy-1H-benzimidazol-2-yl)methyl]-2-[(4aS,7aS)-octahydro-6H-pyrrolo[3,4-b]pyridin-6-yl]pyrazolo[1,5-a][1,3,5]triazin-4-amine]",17.7,19.3,> 20000
"Brc1cnn2c(NCc3nc4ccccc4[nH]3)nc(N3CCNC4(CC4)C3)nc12 [Example 176, N-[(1H-benzimidazol-2-yl)methyl]-8-bromo-2-(4,7-diazaspiro[2.5]octan-7-yl)pyrazolo[1,5-a][1,3,5]triazin-4-amine]",14.6,4.68,> 20000
"Fc1ccc2[nH]c(CNc3nc(N4C[C@@H]5CCCN[C@@H]5C4)nc4c(C5CC5)cnn34)nc2c1 [Example 180, 8-cyclopropyl-N-[(5-fluoro-1H-benzimidazol-2-yl)methyl]-2-[(4aS, 7aS)-octahydro-6H-pyrrolo[3,4-b]pyridin-6-yl]pyrazolo[1,5-a][1,3,5]triazin-4-amine]",13.9,12,> 20000
"Cc1ccc2[nH]c(CNc3nc(N4C[C@@H](C)N[C@@H](C)C4)nc4c(C5CC5)cnn34)nc2c1 [Example 194, 8-cyclopropyl-2-[(3R,5S)-3,5-dimethylpiperazin-1-yl]-N-[(5-methyl-1H-benzimidazol-2-yl)methyl]pyrazolo[1,5-a][1,3,5]triazin-4-amine]",1.69,0.829,> 20000
"OC[C@@H]1CCCCN1c1nc(NCc2nc3c(F)c(F)ccc3[nH]2)n2ncc(C3CC3)c2n1 [Example 184, [(2S)-1-(8-cyclopropyl-4-{[(4,5-difluoro-1H-benzimidazol-2-yl)methyl]amino}pyrazolo[1,5-a][1,3,5]triazin-2-yl)piperidin-2-yl]methanol]",10.3,3.89,1640
"CN1CC[C@H]2CN(c3nc(NCc4nc5ccccc5[nH]4)n4ncc(Br)c4n3)C[C@H]21 [Example 179, N-[(1H-benzimidazol-2-yl)methyl]-8-bromo-2-[(3aS,6aS)-1-methylhexahydropyrrolo[3,4-b]pyrrol-5 (1H)-yl]pyrazolo[1,5-a][1,3,5]triazin-4-amine]",74.8,21.7,> 20000
"COc1cccc2[nH]c(CNc3nc(N4CCNCC4)nc4c(C5CC5)cnn34)nc12 [Example 211, 8-cyclopropyl-N-[(4-methoxy-1H-benzimidazol-2-yl)methyl]-2-(piperazin-1-yl)pyrazolo[1,5-a][1,3,5]triazin-4-amine]",7.03,4.24,> 20000
"Brc1cnn2c(NCc3nc4ccccc4[nH]3)nc(N3CC4CCC(C3)N4)nc12 [Example 232, N-(1H-benzimidazol-2-ylmethyl)-8-bromo-2-(3,8-diazabicyclo[3.2.1]octan-3-yl)pyrazolo[1,5-a][1,3,5]triazin-4-amine]",17.9,4.92,> 20000
"CN1CC[C@@H]2CN(c3nc(NCc4nc5ccccc5[nH]4)n4ncc(Br)c4n3)C[C@@H]21 [Example 217, N-[(1H-benzimidazol-2-yl)methyl]-8-bromo-2-[(3aR,6aR)-1-methylhexahydropyrrolo[3,4-b]pyrrol-5 (1H)-yl]pyrazolo[1,5-a][1,3,5]triazin-4-amine]",97.9,33.5,> 20000
"Fc1cccc2[nH]c(CNc3nc(N4CCNCC4)nc4c(C5CC5)cnn34)nc12 [Example 182, 8-cyclopropyl-N-[(4-fluoro-1H-benzimidazol-2-yl)methyl]-2-(piperazin-1-yl)pyrazolo[1,5-a][1,3,5]triazin-4-amine]",10.2,3.32,> 20000
"C[C@@H]1CN(c2nc(NCc3nc4c(F)cccc4[nH]3)n3ncc(C4CC4)c3n2)C[C@H](C)N1 [Example 186, 8-cyclopropyl-2-[(3R,5S)-3,5-dimethylpiperazin-1-yl]-N-[(4-fluoro-1H-benzimidazol-2-yl)methyl]pyrazolo[1,5-a][1,3,5]triazin-4-amine]",4.94,1.49,> 20000
"Cc1ccc2[nH]c(CNc3nc(N4C[C@@H](C)N[C@@H](C)C4)nc4c(Br)cnn34)nc2c1 [Example 209, 8-bromo-2-[(3R,5S)-3,5-dimethylpiperazin-1-yl]-N-[(5-methyl-1H-benzimidazol-2-yl)methyl]pyrazolo[1,5-a][1,3,5]triazin-4-amine]",2.26,1.67,> 20000
"CN(CC(C)(C)O)c1nc(NCc2nc3ccccc3[nH]2)n2ncc(Br)c2n1 [Example 238, 1-[(4-{[(1H-benzimidazol-2-yl)methyl]amino}-8-bromopyrazolo[1,5-a][1,3,5]triazin-2-yl)(methyl)amino]-2-methylpropan-2-ol]",40.1,> 12.4,> 18700
"CC1(O)CCN(c2nc(NCc3nc4ccccc4[nH]3)n3ncc(Br)c3n2)C1 (stereo not drawn) [Example 225, 1-[4-(1H-benzimidazol-2-ylmethylamino)-8-bromo-pyrazolo[1,5-a][1,3,5]triazin-2-yl]-3-methyl-pyrrolidin-3-ol]",123,34.8,> 20000
"C[C@@H]1CN(c2nc(NCc3nc4cc(F)ccc4[nH]3)n3ncc(C4CC4)c3n2)C[C@H](C)N1 [Example 175, 8-cyclopropyl-2-[(3R,5S)-3,5-dimethylpiperazin-1-yl]-N-[(5-fluoro-1H-benzimidazol-2-yl)methyl]pyrazolo[1,5-a][1,3,5]triazin-4-amine]",3.26,1.63,> 20000
"Fc1ccc2[nH]c(CNc3nc(N4C[C@@H]5C[C@H]4CO5)nc4c(C5CC5)cnn34)nc2c1F [Example 173, 8-cyclopropyl-N-[(4,5-difluoro-1H-benzimidazol-2-yl)methyl]-2-[(1S,4S)-2-oxa-5-azabicyclo[2.2.1]heptan-5-yl]pyrazolo[1,5-a][1,3,5]triazin-4-amine]",20.8,4.58,> 20000
"COC(C)(C)CNc1nc(NCc2nc3ccccc3[nH]2)n2ncc(Br)c2n1 [Example 236, N4-(1H-benzimidazol-2-ylmethyl)-8-bromo-N2-(2-methoxy-2-methyl-propyl)pyrazolo[1,5-a][1,3,5]triazine-2,4-diamine]",90.5,20.4,> 20000
